Data reported in patent publication US20230135729A1, “COMPOUND WITH ANTI-SPORE ACTIVITY AND PHARMACEUTICAL COMPOSITION THEREOF” (priority 2020, published 2023).
Converted amounts (≈) assume the structure as drawn. Like-named read-outs stand apart in the source and are kept apart here.

How the values were obtained:
Format in all cases: cell-based
[1] = tested on: spores of ATCC 43255 strain; assay: Inhibition of germination of C. difficile spores (MIC), strain ATCC 43255; settings: Clostridioides difficile, ATCC43255, 1 h, read-out: MIC (minimum concentration that completely inhibits spore germination)
Outline: (§1)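 Germination was followed as the drop in OD580 over 60 min at 37° C in BHIS after adding sodium taurocholate to spores premixed with compound. Spores were first heat-activated (65° C, 30 min) and washed free of self-germinating spores. The inhibition rate was calculated against germinant and non-germinant controls.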

[2] = tested on: spores of ATCC BBA1870 strain; assay: Inhibition of germination of C. difficile spores (MIC), strain ATCC BBA1870; settings: Clostridioides difficile, ATCCBBA1870STRAIN, 1 h, read-out: MIC (minimum concentration that completely inhibits spore germination)
Outline: as §1

[3] = tested on: spores of ATCC 630 strain; assay: Inhibition of germination of C. difficile spores (MIC), strain ATCC 630; settings: Clostridioides difficile, ATCC630, 1 h, read-out: MIC (minimum concentration that completely inhibits spore germination)
Outline: as §1

[4] = strain 43255, sodium taurocholate as germinant, BHIS medium, 37° C., OD580 for 60 min
[5] = strain 1870, sodium taurocholate as germinant, BHIS medium, 37° C., OD580 for 60 min
[6] = strain 630, sodium taurocholate as germinant, BHIS medium, 37° C., OD580 for 60 min

Structure (SMILES) | MIC [1, 4] [µM] | MIC [2, 5] [µM] | MIC [3, 6] [µM] | MIC [1] [µM] | MIC [2] [µM] | MIC [3] [µM]
C[C@H](CC(=O)NCC1CC1)[C@H]1CC[C@H]2[C@@H]3[C@H](O)C[C@@H]4C[C@H](O)CC[C@]4(C)[C@H]3CC[C@]12C [Compound I-1] | 32 (≈ 13.8 µg/mL) | 32 (≈ 13.8 µg/mL) | 32 (≈ 13.8 µg/mL) | – | – | –
CO[C@@H]1CC[C@@]2(C)[C@@H](C1)C[C@@H](O)[C@@H]1[C@@H]2CC[C@]2(C)[C@@H]([C@H](C)CC(=O)N[C@@H](c3ccc(Cl)s3)C(C)C)CC[C@@H]12 [Compound I-170] | 128 (≈ 72.2 µg/mL) | 128 (≈ 72.2 µg/mL) | 128 (≈ 72.2 µg/mL) | – | – | –
CC(=O)O[C@@H]1CC2=CC(=O)C=C[C@]2(C)[C@H]2CC[C@]3(C)[C@@H]([C@H](C)CC(=O)N[C@@H](c4ccc(Br)s4)C(C)C)CC[C@H]3[C@H]12 [I-160 -1] | 0.5 (≈ 0.315 µg/mL) | 0.5 (≈ 0.315 µg/mL) | 0.5 (≈ 0.315 µg/mL) | – | – | –
CC[C@@H](NC(=O)C[C@@H](C)[C@H]1CC[C@H]2[C@@H]3C(=O)C[C@@H]4C[C@H](O)CC[C@]4(C)[C@H]3CC[C@]12C)c1ccc(Cl)s1 [Compound I-149] | 2 (≈ 1.07 µg/mL) | 2 (≈ 1.07 µg/mL) | 2 (≈ 1.07 µg/mL) | – | – | –
CC(C)[C@@H](NC(=O)C[C@@H](C)[C@H]1CC[C@H]2[C@@H]3C(=O)C[C@@H]4CC(=O)CC[C@]4(C)[C@H]3CC[C@]12C)c1ccc(C=O)s1 [Compound I-200] | 32 (≈ 17.3 µg/mL) | 32 (≈ 17.3 µg/mL) | 16 (≈ 8.64 µg/mL) | – | – | –
CC[C@@H](NC(=O)C[C@@H](C)[C@H]1CC[C@H]2[C@@H]3[C@H](OC(C)=O)CC4=CC(=O)CC[C@]4(C)[C@H]3CC[C@]12C)c1ccc(Cl)s1 [I-157 -1] | 0.5 (≈ 0.287 µg/mL) | 0.5 (≈ 0.287 µg/mL) | 0.25 (≈ 0.144 µg/mL) | – | – | –
CC[C@@H](NC(=O)C[C@@H](C)[C@H]1CC[C@H]2[C@@H]3[C@H](OC(=O)CCC(=O)O)C[C@@H]4CC(=O)CC[C@]4(C)[C@H]3CC[C@]12C)c1ccc(Br)s1 [Compound I-180] | 2 (≈ 1.36 µg/mL) | 2 (≈ 1.36 µg/mL) | 1 (≈ 0.679 µg/mL) | – | – | –
CC[C@H](NC(=O)C[C@@H](C)[C@H]1CC[C@H]2[C@@H]3[C@H](O)C[C@@H]4CC(=O)CC[C@]4(C)[C@H]3CC[C@]12C)c1ccc(Cl)s1 [Compound I-87] | 128 (≈ 68.4 µg/mL) | 256 (≈ 137 µg/mL) | 128 (≈ 68.4 µg/mL) | – | – | –
CC(C)[C@@H](NC(=O)C[C@@H](C)[C@H]1CC[C@H]2[C@@H]3[C@H](O)[C@H](O)[C@@H]4C[C@H](O)CC[C@]4(C)[C@H]3CC[C@]12C)c1ccc(Cl)s1 [Compound I-120] | 16 (≈ 9.06 µg/mL) | 16 (≈ 9.06 µg/mL) | 16 (≈ 9.06 µg/mL) | – | – | –
CC(C)C(NC(=O)C[C@@H](C)[C@H]1CC[C@H]2[C@@H]3C[C@H](O)[C@@H]4C[C@H](O)CC[C@]4(C)[C@H]3CC[C@]12C)c1cccs1 (stereo partly drawn) [Compound I-127] | 8 (≈ 4.13 µg/mL) | 8 (≈ 4.13 µg/mL) | 4 (≈ 2.06 µg/mL) | – | – | –
CC[C@@H](NC(=O)C[C@@H](C)[C@H]1CC[C@H]2[C@@H]3C(=O)CC4=CC(=O)C=C[C@]4(C)[C@H]3CC[C@]12C)c1ccc(Cl)s1 [Compound I-153] | 0.5 (≈ 0.264 µg/mL) | 0.5 (≈ 0.264 µg/mL) | 0.5 (≈ 0.264 µg/mL) | – | – | –
CC(C)[C@H](NC(=O)C[C@@H](C)[C@H]1CC[C@H]2[C@@H]3[C@H](O)C[C@@H]4CC(=O)CC[C@]4(C)[C@H]3CC[C@]12C)c1ccc(S(=O)(=O)O)s1 [Compound I-102] | > 256 | > 256 | > 256 | – | – | –
CC(C)[C@@H](NC(=O)C[C@@H](C)[C@H]1CC[C@H]2[C@@H]3[C@H](OS(=O)(=O)O)C[C@@H]4CC(=O)CC[C@]4(C)[C@H]3CC[C@]12C)c1ccc(Br)s1 [Compound I-115] | 0.25 (≈ 0.168 µg/mL) | 0.5 (≈ 0.336 µg/mL) | 0.5 (≈ 0.336 µg/mL) | – | – | –
C[C@H](CC(=O)NCc1ccccn1)[C@H]1CC[C@H]2[C@@H]3C(=O)C[C@@H]4CC(=O)CC[C@]4(C)[C@H]3CC[C@]12C [Compound I-65] | 128 (≈ 59.5 µg/mL) | 128 (≈ 59.5 µg/mL) | 128 (≈ 59.5 µg/mL) | – | – | –
C[C@H](CC(=O)NCc1ccccn1)[C@H]1CC[C@H]2[C@@H]3[C@H](O)C[C@@H]4C[C@H](O)CC[C@]4(C)[C@H]3CC[C@]12C [Compound I-6] | 64 (≈ 30 µg/mL) | 64 (≈ 30 µg/mL) | 64 (≈ 30 µg/mL) | – | – | –
CC[C@@H](NC(=O)C[C@@H](C)[C@H]1CC[C@H]2[C@@H]3[C@H](O)C[C@@H]4C[C@H](O)CC[C@]4(C)[C@H]3CC[C@]12C)c1ccc(Br)s1 [Compound I-138] | 1 (≈ 0.581 µg/mL) | 1 (≈ 0.581 µg/mL) | 1 (≈ 0.581 µg/mL) | – | – | –
CC(C)[C@@H](NC(=O)C[C@@H](C)[C@H]1CC[C@H]2[C@@H]3[C@H](O)C[C@@H]4CC(=O)CC[C@]4(C)[C@H]3CC[C@]12C)c1ccc(S(=O)(=O)O)s1 [Compound I-103] | 16 (≈ 9.5 µg/mL) | 16 (≈ 9.5 µg/mL) | 16 (≈ 9.5 µg/mL) | – | – | –
CC[C@@H](NC(=O)C[C@@H](C)[C@H]1CC[C@H]2[C@@H]3[C@H](OC(=O)CCC(=O)O)C[C@@H]4CC(=O)CC[C@]4(C)[C@H]3CC[C@]12C)c1ccc(Cl)s1 [Compound I-179] | 2 (≈ 1.27 µg/mL) | 2 (≈ 1.27 µg/mL) | 2 (≈ 1.27 µg/mL) | – | – | –
CC(C)[C@@H](NC(=O)C[C@@H](C)[C@H]1CC[C@H]2[C@@H]3[C@H](O)C[C@@H]4C[C@H](O)CC[C@]4(C)[C@H]3CC[C@]12C)c1ccc(Br)s1 [Compound I-140] | 1 (≈ 0.595 µg/mL) | 1 (≈ 0.595 µg/mL) | 1 (≈ 0.595 µg/mL) | – | – | –
CC[C@@H](NC(=O)C[C@@H](C)[C@H]1CC[C@H]2[C@@H]3[C@H](OC(C)=O)CC4=CC(=O)CC[C@]4(C)[C@H]3CC[C@]12C)c1ccc(Br)s1 [I-155 -1] | 0.25 (≈ 0.155 µg/mL) | 0.25 (≈ 0.155 µg/mL) | 0.25 (≈ 0.155 µg/mL) | – | – | –
CC[C@H](NC(=O)C[C@@H](C)[C@H]1CC[C@H]2[C@@H]3C(=O)C[C@@H]4CC(=O)CC[C@]4(C)[C@H]3CC[C@]12C)c1ccccc1 [Compound I-59] | – | – | – | 64 (≈ 31.5 µg/mL) | 128 (≈ 62.9 µg/mL) | 64 (≈ 31.5 µg/mL)
CC(NC(=O)C[C@@H](C)[C@H]1CC[C@H]2[C@@H]3[C@H](O)C[C@@H]4C[C@H](O)CC[C@]4(C)[C@H]3C[C@H](O)[C@]12C)c1ccccc1 (stereo partly drawn) [Compound I-19] | 32 (≈ 15.9 µg/mL) | 64 (≈ 31.9 µg/mL) | 32 (≈ 15.9 µg/mL) | – | – | –
C[C@H](CC(=O)NCc1cccs1)[C@H]1CC[C@H]2[C@@H]3[C@H](O)C[C@@H]4C[C@H](O)CC[C@]4(C)[C@H]3CC[C@]12C [Compound I-3] | 8 (≈ 3.79 µg/mL) | 8 (≈ 3.79 µg/mL) | 4 (≈ 1.89 µg/mL) | – | – | –
CC[C@@H](NC(=O)C[C@@H](C)[C@H]1CC[C@H]2[C@@H]3[C@H](O)C[C@@H]4C[C@H](O)CC[C@]4(C)[C@H]3C[C@H](O)[C@]12C)c1ccc(Cl)s1 [Compound I-145] | 32 (≈ 17.7 µg/mL) | 32 (≈ 17.7 µg/mL) | 16 (≈ 8.84 µg/mL) | – | – | –
CC[C@@H](NC(=O)C[C@@H](C)[C@H]1CC[C@H]2[C@@H]3[C@H](O)C[C@@H]4CC(=O)CC[C@]4(C)[C@H]3CC[C@]12C)c1ccc(Cl)s1 [Compound I-88] | 0.25 (≈ 0.134 µg/mL) | 0.25 (≈ 0.134 µg/mL) | 0.125 (≈ 0.0668 µg/mL) | – | – | –
CC(C)[C@@H](NC(=O)C[C@@H](C)[C@H]1CC[C@H]2[C@@H]3CC[C@@H]4C[C@H](O)CC[C@]4(C)[C@H]3CC[C@]12C)c1ccc(Br)s1 [Compound I-148] | 16 (≈ 9.26 µg/mL) | 16 (≈ 9.26 µg/mL) | 16 (≈ 9.26 µg/mL) | – | – | –
